The values below come from PMC7827406, “Structure–Activity Relationship (SAR) Study of Spautin-1 to Entail the Discovery of Novel NEK4 Inhibitors” (International Journal of Molecular Sciences, 2021).

Holding throughout (experiment): biochemical
Common to all, as to parameters: Eurofins KinaseProfiler full panel at Km ATP, residual kinase activity (%) relative to DMSO

In one experiment the target is HIPK1(h) (Homo sapiens, UniProt Q86Z02). In outline:
(§1)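 Compounds screened at 10 µM in radiometric kinase activity assays at Km ATP, reported as remaining kinase activity (%). A KINOMEscan competition-binding screen at 10 µM measured DNA-tagged kinase retained on immobilized active-site ligand by qPCR.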

The target in the next experiment is T1, SAPK2a(T106M)(h) (Homo sapiens, UniProt Q16539, T106M).
T1 construct: gene MAPK14
T1 sequence (Q16539 whole entry T106M): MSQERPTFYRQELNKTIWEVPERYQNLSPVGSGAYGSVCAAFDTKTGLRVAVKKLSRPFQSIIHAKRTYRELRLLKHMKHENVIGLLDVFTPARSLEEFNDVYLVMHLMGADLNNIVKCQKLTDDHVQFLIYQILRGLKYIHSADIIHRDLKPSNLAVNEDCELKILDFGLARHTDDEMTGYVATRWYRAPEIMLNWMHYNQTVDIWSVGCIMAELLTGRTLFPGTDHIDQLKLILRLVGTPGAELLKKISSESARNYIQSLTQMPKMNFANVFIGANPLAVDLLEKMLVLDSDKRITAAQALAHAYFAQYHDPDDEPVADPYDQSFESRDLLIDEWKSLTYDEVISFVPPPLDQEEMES
In outline: as §1

Another experiment has as its target T2, IGF-1R(h) (Homo sapiens, UniProt P08069).
T2 construct: gene IGF1R
In outline:
as §1

Another experiment concerns the target T3, Snk(h) (Homo sapiens, UniProt Q9NYY3).
T3 construct: gene PLK2
In outline: as §1

A further experiment concerns the target T4, PKCζ(h) (Homo sapiens, UniProt Q05513).
T4 construct: gene PRKCZ
T4 sequence (Q05513 1-592): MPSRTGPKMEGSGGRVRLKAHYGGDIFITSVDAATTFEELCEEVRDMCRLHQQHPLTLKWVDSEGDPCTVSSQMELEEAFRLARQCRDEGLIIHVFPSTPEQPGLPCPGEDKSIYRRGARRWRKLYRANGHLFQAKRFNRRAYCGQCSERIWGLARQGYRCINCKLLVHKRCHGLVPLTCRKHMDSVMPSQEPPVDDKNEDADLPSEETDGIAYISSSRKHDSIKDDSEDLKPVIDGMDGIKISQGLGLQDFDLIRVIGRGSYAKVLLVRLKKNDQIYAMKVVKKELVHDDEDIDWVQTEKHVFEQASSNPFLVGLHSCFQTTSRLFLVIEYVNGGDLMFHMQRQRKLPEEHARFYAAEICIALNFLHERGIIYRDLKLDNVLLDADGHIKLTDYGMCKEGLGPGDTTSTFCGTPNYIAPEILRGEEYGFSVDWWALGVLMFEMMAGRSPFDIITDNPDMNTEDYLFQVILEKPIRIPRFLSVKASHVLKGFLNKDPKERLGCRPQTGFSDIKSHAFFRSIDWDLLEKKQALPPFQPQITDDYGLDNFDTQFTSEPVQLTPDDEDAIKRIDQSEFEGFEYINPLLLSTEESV
In outline:
as §1

The target in a further experiment is T5, Abl(m) (Mus musculus, UniProt P00520).
T5 construct: gene Abl1
T5 sequence (P00520 whole entry): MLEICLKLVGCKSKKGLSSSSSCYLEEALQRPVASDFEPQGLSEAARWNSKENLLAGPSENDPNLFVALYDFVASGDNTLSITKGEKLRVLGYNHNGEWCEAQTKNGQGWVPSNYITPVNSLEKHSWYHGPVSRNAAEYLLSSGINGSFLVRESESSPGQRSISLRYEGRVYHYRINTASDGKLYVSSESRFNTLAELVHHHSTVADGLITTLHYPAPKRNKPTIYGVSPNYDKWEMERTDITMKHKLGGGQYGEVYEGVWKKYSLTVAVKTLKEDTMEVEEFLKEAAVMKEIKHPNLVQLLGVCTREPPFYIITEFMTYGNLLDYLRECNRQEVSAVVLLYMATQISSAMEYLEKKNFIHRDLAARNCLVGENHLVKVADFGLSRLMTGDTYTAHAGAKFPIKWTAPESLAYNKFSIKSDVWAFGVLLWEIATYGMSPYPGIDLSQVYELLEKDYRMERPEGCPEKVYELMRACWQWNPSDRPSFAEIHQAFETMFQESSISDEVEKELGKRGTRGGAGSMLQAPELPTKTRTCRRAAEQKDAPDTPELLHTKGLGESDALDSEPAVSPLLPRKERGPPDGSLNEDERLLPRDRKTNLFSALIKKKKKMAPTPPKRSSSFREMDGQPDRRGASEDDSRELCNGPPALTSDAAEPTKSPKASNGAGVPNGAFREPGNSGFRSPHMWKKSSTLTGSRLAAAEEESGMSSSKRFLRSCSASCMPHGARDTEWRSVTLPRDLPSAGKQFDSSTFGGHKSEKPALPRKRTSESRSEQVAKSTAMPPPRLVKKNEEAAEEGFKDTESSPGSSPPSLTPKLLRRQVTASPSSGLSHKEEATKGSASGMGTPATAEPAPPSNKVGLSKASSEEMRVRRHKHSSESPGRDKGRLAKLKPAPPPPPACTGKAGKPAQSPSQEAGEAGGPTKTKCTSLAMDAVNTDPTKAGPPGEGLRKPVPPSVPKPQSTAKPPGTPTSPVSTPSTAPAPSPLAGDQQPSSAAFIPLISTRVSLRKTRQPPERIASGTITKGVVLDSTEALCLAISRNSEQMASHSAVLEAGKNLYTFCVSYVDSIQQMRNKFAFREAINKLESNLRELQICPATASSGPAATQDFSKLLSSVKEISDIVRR
In outline:
as §1

A further experiment concerns the target T6, EphB2(h) (Homo sapiens, UniProt P29323).
T6 sequence (P29323 1-1055): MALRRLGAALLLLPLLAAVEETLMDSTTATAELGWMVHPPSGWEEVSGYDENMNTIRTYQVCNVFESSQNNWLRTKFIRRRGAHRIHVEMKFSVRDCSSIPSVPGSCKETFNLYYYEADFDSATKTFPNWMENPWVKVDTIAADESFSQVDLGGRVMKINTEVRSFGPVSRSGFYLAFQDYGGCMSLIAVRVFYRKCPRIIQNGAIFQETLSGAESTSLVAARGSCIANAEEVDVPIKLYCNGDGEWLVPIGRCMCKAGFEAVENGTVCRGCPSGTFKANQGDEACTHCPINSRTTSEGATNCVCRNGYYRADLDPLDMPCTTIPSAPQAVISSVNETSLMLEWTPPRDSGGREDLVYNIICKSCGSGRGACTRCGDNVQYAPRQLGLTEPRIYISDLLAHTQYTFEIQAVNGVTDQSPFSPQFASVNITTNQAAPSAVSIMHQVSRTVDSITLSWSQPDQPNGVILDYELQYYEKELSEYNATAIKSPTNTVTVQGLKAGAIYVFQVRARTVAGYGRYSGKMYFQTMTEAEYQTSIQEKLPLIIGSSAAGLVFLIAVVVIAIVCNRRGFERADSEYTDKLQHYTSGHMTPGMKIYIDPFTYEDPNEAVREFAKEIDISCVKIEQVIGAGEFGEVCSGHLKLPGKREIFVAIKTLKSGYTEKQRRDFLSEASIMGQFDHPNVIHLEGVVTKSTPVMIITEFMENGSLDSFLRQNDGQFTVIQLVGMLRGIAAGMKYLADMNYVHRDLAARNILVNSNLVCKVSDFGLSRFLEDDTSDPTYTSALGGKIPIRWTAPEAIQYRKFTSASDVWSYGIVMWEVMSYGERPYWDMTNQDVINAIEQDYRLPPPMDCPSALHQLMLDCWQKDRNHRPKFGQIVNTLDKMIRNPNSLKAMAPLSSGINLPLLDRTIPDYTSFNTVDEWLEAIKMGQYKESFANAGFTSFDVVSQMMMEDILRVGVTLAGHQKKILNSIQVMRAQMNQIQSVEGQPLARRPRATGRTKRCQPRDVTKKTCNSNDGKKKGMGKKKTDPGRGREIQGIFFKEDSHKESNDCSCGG
In outline:
as §1

Where [1] appears, read: read-out: Residual activity (%) Spautin-1 5aa.
The mark [2] stands for this setting: read-out: Residual activity (%) 5as.
Where [3] appears, read: read-out: Residual activity (%) 5at.
Where [4] appears, read: read-out: Residual activity (%) 5ay.

Like-named read-outs stand apart in the source and are kept apart here.

HIPK1(h), sequence (Q86Z02 whole entry): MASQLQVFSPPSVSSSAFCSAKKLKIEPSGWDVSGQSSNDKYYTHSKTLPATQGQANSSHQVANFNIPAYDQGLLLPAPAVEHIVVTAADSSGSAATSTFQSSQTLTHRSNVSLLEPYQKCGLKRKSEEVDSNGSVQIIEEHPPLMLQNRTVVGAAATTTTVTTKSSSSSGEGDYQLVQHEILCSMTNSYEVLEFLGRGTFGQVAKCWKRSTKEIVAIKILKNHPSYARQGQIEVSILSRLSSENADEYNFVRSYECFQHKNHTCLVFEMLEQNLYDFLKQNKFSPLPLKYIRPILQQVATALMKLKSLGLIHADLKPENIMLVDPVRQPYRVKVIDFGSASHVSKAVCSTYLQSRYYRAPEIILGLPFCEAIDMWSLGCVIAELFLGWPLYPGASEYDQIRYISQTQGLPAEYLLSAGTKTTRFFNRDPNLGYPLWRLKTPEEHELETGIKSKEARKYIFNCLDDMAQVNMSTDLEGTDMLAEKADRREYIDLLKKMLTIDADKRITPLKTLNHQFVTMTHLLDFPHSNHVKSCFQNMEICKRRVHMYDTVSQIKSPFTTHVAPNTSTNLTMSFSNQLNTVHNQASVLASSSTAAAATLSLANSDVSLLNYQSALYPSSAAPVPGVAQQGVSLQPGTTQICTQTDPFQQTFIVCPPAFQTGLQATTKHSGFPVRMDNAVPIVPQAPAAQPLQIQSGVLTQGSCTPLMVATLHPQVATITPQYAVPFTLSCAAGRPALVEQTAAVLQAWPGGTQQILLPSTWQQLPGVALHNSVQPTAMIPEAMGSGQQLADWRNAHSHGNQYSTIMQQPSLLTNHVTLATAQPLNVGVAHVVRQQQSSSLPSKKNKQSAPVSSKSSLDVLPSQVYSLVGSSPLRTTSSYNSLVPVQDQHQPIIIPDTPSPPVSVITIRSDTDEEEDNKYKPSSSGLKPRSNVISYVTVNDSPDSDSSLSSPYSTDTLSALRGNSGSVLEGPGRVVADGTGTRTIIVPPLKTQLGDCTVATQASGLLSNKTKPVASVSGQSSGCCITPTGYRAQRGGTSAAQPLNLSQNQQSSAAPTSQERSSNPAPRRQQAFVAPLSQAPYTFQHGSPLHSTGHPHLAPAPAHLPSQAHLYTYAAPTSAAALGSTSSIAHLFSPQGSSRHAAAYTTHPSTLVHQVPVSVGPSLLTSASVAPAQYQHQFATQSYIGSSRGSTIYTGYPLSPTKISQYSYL
T3 sequence (Q9NYY3 whole entry): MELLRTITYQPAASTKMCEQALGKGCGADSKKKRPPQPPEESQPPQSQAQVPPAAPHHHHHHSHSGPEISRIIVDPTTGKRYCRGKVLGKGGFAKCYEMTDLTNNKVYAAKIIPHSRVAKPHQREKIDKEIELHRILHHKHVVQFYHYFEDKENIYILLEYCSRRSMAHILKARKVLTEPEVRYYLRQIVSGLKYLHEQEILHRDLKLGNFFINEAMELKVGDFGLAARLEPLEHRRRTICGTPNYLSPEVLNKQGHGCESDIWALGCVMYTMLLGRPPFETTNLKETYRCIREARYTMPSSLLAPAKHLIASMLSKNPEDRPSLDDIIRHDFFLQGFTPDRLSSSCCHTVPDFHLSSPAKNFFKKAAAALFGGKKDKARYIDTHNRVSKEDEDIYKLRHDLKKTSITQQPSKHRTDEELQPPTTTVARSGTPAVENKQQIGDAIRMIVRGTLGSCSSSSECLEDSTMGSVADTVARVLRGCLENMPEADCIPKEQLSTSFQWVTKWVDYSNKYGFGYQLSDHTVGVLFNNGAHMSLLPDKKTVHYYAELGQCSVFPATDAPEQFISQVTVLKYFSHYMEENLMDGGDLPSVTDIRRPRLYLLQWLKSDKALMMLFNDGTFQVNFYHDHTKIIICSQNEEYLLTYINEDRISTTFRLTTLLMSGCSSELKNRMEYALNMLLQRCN
T2 sequence (P08069 whole entry): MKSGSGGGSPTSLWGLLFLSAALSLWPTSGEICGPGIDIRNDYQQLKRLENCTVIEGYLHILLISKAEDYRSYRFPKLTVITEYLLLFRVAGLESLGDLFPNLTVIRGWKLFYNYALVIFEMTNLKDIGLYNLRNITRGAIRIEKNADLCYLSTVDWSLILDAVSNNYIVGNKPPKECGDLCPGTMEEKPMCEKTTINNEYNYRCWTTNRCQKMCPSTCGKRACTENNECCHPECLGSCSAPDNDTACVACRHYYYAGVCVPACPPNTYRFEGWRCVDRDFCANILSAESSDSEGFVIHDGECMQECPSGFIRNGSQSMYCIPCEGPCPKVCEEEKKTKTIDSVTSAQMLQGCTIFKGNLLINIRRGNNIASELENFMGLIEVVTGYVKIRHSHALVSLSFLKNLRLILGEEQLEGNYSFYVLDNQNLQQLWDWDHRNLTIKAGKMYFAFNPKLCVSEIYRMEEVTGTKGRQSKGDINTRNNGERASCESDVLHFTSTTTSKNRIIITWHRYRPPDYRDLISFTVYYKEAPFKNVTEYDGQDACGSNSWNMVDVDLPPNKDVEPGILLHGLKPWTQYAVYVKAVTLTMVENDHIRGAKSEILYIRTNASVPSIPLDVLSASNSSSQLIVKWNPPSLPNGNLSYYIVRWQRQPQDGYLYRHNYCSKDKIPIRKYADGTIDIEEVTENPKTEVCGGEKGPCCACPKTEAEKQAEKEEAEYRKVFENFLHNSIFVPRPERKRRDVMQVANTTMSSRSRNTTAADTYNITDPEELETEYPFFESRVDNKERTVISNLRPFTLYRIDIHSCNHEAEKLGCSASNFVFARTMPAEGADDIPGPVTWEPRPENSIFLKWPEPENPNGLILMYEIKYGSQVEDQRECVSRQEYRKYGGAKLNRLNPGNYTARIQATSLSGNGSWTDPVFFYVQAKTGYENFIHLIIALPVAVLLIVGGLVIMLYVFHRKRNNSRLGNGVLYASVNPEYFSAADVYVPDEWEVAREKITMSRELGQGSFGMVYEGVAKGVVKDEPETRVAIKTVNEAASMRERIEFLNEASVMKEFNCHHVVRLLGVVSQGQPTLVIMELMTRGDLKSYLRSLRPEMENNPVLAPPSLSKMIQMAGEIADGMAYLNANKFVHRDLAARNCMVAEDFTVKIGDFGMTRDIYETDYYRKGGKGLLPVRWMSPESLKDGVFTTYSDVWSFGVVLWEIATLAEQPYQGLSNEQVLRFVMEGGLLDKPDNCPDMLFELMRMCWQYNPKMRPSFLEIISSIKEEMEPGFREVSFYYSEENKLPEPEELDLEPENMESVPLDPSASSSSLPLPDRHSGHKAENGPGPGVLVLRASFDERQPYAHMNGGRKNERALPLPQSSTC

For `Fc1ccc(CNc2ncnc3ccc(F)cc23)cc1` [5aa, 6-Fluoro-N-(4-fluorobenzyl)-4-Quinazolinamine], the remaining activity at 10 µM at HIPK1(h) (setting [1]) is 94%; at SAPK2a(T106M)(h) (setting [1]) it was 95%; at IGF-1R(h) (setting [1]) it was 90%; on Snk(h) (setting [1]) it was 98%; on PKCζ(h) (setting [1]), 85%; on Abl(m) (setting [1]) it was 90%. Also, the remaining activity at 10 µM at EphB2(h) (setting [1]) is 96%.

`Fc1ccc(CCNc2ncnc3ccc(F)cc23)cc1` [5as, 6-Fluoro-N-[2-(4-Fluorophenyl)Ethyl]-4-Quinazolinamine]: the remaining activity at 10 µM at HIPK1(h) (setting [2]) worked out at 120%; at SAPK2a(T106M)(h) (setting [2]), 115%; on IGF-1R(h) (setting [2]) it was 83%; on Snk(h) (setting [2]), 89%; on PKCζ(h) (setting [2]), 75%; on Abl(m) (setting [2]), 83%. For the same compound, the remaining activity at 10 µM on EphB2(h) (setting [2]) is 82%.

Turning to `Fc1ccc2ncnc(NCCc3ccc(Cl)cc3)c2c1` [5at, N-[2-(4-Chlorophenyl)Ethyl]-6-Fluoro-4-Quinazolinamine], the remaining activity at 10 µM on HIPK1(h) (setting [3]) was found to be 103%; on SAPK2a(T106M)(h) (setting [3]), 103%; on IGF-1R(h) (setting [3]), 83%; on Snk(h) (setting [3]), 100%; at PKCζ(h) (setting [3]), 71%; at Abl(m) (setting [3]), 99%. For the same compound, the remaining activity at 10 µM on EphB2(h) (setting [3]) was found to be 93%.

On to `COc1ccc2ncnc(Nc3cccc(F)c3)c2c1` [5ay, N-(3-Fluorophenyl)-6-Methoxy-4-Quinazolinamine], for which the remaining activity at 10 µM on HIPK1(h) (setting [4]) amounted to 78%; at SAPK2a(T106M)(h) (setting [4]), 121%; on IGF-1R(h) (setting [4]), 101%; on Snk(h) (setting [4]), 80%; on PKCζ(h) (setting [4]), 91%; on Abl(m) (setting [4]), 56%. For the same compound, the remaining activity at 10 µM at EphB2(h) (setting [4]) came to 97%.
